In paper PMC5522529, “Mechanisms of Paradoxical Activation of AMPK by the Kinase Inhibitors SU6656 and Sorafenib” (Cell Chemical Biology, 2017):

Tests used:
AMPK-α1 AA mutant = biological target: T1, AMPK-α1 AA mutant (Homo sapiens, UniProt Q13131, K40A/K42A); assay: AMPK activity of FLAG-tagged AMPK-α1 K40A/K42A (AA) mutant expressed in HEK293 cells; format: cell-based
T1 construct: Plasmid encoding full-length human AMPK-α1; expressed in transfected cells; host or cells: HEK293
Source text: (B) Western blotting of the same preparations as in (A). […] (D) Allosteric activation of WT and mutant α1β1γ1 complexes by MT 63-78, curve fitting as for (C). […] (E) Allosteric activation of WT and mutant α1β1γ1 complexes by AMP. Data were fitted to the equation for activation/inactivation by AMP ([Gowans et al., 2013]). […] (F) Activation of WT and AA mutant by various AMPK activators in HEK293 cells. […] FLAG-tagged complexes were isolated by immunoprecipitation and AMPK activity determined (mean ± SEM, n = 2).
We next expressed the FLAG-tagged WT or AA mutant of AMPK-α1 by transient transfection in HEK293 cells, treated with various agents, and measured AMPK activity in anti-FLAG immunoprecipitates. In Figure 4F, the results are expressed as absolute activities and are accompanied by blots showing Thr172 phosphorylation.

ACC = ACC phosphorylation in HEK293 cells (western blot); format: cell-based, human; details: 1 hr
Method: Figure 1 SU6656 Activates AMPK but Not AMPK-Related Kinases (A) HEK293 cells were incubated with the indicated concentrations of SU6656 or berberine (300 μM) for 1 hr; total AMPK activity was assayed in immunoprecipitates (top; mean ± SEM, n = 4), and phosphorylation of AMPK (Thr172), ACC (Ser80), and Raptor (Ser792) analyzed by western blotting (bottom; n = 2). (B) HEK293 cells were incubated with 100 μM SU6656 (1 hr), AMPK complexes containing α1, α2, β1, and β2 immunoprecipitated using isoform-specific antibodies, and AMPK activity measured (mean ± SEM, n = 4). (C) HeLa cells stably expressing LKB1 ([Fogarty et al., 2010]) were incubated with 100 μM SU6656 for 1 hr, AMPK or individual ARKs immunoprecipitated, and kinase assays carried out (antibodies that distinguish MARK2/MARK3 were not available, so they were assayed together). Results are means ± SEM (n = 2). In all panels, asterisks indicate significant differences from controls without SU6656. *p < 0.05, **p < 0.01, ****p < 0.0001.
(B) WT or RG cells were treated as in (A) and nucleotides extracted for analysis (mean ± SD, n = 3). […] (E) (See also Figure S2) Time courses of cellular oxygen uptake before and after addition of the indicated concentrations of sorafenib (SO, μM), SU6656 (100 μM) or phenformin (PHEN, 10 mM) (mean ± SEM, n = 4). (F) Effect of various concentrations of sorafenib or phenformin (10 mM) on activation (top, mean ± SEM, n = 3) or phosphorylation (bottom) of AMPK in cells expressing wild-type AMPK-γ2 (WT) or the R531G mutant AMPK-γ2 (RG). In all panels, asterisks show significant differences from DMSO controls (ns, not significant). […]
Cells were incubated for 60 min and AMPK activity measured; results in the top panel are means ± SEM (n = 8), with significant differences from the DMSO control indicated (ns, not significant). […]
SDS-PAGE was performed using precast Bis-Tris 4–12% gradient polyacrylamide gels in the MOPS buffer system (ThermoFisher Scientific). […] Protein concentrations were determined by Coomassie Blue binding with bovine serum albumin as standard ([Bradford, 1976]). […]

[1] = biological target: T2, AMPK-γ2 R531G (RG) mutant (Homo sapiens, UniProt Q9UGJ0, R531G); assay: AMPK activity in HEK293 cells expressing R531G AMPK-γ2; format: cell-based; details: 1 hr
T2 construct: expressed in transfected cells
Source text: The next possibility was that, like several other AMPK-activating drugs, SU6656 inhibits mitochondrial ATP synthesis, and thus activates AMPK indirectly by increasing cellular AMP/ADP. To test this, we used cell lines inducibly expressing either WT AMPK-γ2 or an AMP/ADP-resistant R531G (RG) mutant ([Hawley et al., 2010]). […] There were no effects of SU6656 on cellular oxygen uptake, unlike berberine. Subsequent addition of the uncoupler 2,4-dinitrophenol (DNP), which prevents the respiratory chain from being limited by ADP supply, increased oxygen uptake identically in control and SU6656-treated cells but had no effect following berberine, as expected for a complex I inhibitor (Figure S2).
(B) WT or RG cells were treated as in (A) and nucleotides extracted for analysis (mean ± SD, n = 3). […] (E) (See also Figure S2) Time courses of cellular oxygen uptake before and after addition of the indicated concentrations of sorafenib (SO, μM), SU6656 (100 μM) or phenformin (PHEN, 10 mM) (mean ± SEM, n = 4). (F) Effect of various concentrations of sorafenib or phenformin (10 mM) on activation (top, mean ± SEM, n = 3) or phosphorylation (bottom) of AMPK in cells expressing wild-type AMPK-γ2 (WT) or the R531G mutant AMPK-γ2 (RG). In all panels, asterisks show significant differences from DMSO controls (ns, not significant). In (B), daggers (†) show significant differences between results in WT and RG cells. *p < 0.05, **p < 0.01, ***p < 0.001, ****p < 0.0001, ^††††p < 0.0001.
HEK-293 cells stably expressing tetracycline-inducible FLAG-tagged human AMPK-γ2, or an R531G mutant, were generated by introducing the corresponding DNAs into Flp-In™ T-REx™ 293 cells ([Auciello et al., 2014]). Expression of the FLAG-tagged constructs was induced for 48 hr using tetracycline (1 μg.ml^-1) prior to addition of compounds under test. Transient transfections were carried out 36-48 hr prior to experiments, using Fugene 6 according to manufacturers’ instructions.

[2] = parameters: method as in Strumberg et al., 2007; details: human clinical trials; ref Strumberg et al., 2007; cited from earlier work

T2 sequence (Q9UGJ0 whole entry R531G): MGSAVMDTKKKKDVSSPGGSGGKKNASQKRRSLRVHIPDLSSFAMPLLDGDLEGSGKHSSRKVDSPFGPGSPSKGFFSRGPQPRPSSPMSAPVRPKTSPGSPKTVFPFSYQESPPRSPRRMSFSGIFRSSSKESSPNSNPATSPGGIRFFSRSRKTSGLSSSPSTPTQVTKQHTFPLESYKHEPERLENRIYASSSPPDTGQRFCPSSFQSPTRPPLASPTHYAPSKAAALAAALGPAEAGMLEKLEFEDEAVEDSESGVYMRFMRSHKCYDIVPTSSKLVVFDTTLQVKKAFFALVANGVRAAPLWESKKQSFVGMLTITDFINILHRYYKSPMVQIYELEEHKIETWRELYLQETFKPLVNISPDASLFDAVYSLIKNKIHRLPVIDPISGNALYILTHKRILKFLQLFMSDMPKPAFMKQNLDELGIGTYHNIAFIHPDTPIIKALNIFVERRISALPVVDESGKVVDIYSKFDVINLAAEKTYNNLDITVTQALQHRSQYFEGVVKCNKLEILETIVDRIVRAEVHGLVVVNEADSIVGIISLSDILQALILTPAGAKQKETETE
T1 sequence (Q13131 whole entry K40A/K42A): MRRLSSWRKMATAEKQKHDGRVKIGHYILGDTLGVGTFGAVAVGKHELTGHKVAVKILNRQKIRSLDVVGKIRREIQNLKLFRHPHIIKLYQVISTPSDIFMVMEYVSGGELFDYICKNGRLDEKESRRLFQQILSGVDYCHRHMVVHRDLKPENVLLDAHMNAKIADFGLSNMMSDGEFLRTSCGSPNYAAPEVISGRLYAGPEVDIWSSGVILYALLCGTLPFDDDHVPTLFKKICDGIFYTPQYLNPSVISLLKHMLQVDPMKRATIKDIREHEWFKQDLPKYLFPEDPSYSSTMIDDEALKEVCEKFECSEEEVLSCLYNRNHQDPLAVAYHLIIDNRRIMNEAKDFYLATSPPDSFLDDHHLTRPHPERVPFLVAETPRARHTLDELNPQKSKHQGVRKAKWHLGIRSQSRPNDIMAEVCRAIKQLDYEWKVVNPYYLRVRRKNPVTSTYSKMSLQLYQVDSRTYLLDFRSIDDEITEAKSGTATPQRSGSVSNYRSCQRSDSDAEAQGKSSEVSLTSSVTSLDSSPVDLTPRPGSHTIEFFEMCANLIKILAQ
T1 sequence (P54619 whole entry partner): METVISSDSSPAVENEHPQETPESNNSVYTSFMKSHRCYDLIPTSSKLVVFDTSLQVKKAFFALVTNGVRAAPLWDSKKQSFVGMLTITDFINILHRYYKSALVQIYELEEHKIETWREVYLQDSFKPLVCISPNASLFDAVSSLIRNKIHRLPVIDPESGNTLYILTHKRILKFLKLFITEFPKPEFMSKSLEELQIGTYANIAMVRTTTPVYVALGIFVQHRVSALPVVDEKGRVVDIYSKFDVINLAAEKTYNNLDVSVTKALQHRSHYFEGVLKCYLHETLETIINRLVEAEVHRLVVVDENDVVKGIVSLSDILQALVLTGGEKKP

Row | effect of AA mutation on AMPK activation (AMPK-α1 AA mutant; AA mutant FLAG-α1, same concentrations, 1 hr) | increase in activity and Thr172 phosphorylation (AMPK-α1 AA mutant; AA mutant FLAG-α1, 100 μM, relative to DMSO control) [fold] | Compound | ACC phosphorylation (ACC) | AMPK activity [1] | peak plasma sorafenib [2] [µM]
1 | abolished |  | COc1ccc2cc3[n+](cc2c1OC)CCc1cc2c(cc1-3)OCO2 [berberine] |  |  | 
2 |  | 3 | CN(C)S(=O)(=O)c1ccc2c(c1)/C(=C/c1cc3c([nH]1)CCCC3)C(=O)N2 [SU6656] | increased phosphorylation | activated AMPK and enhanced Thr172 phosphorylation in both WT and RG cells | 
3 |  |  | CNC(=O)c1cc(Oc2ccc(NC(=O)Nc3ccc(Cl)c(C(F)(F)F)c3)cc2)ccn1 [sorafenib] | promoted Thr172 and ACC phosphorylation | Neither AMPK activity nor Thr172 phosphorylation were significantly elevated | 6 to 20
